Data from patent publication US20090270413A1, “DI-T-BUTYLPHENYL PIPERAZINES AS CALCIUM CHANNEL BLOCKERS” (priority 2008, published 2009).

Tests used:
Type in all cases: cell-based
[1] = molecular target: T1, Cav3.1 (T-type channel alpha-1G) (Homo sapiens, UniProt O43497); test: T-type calcium channel voltage-clamp assay, Cav3.1; details: read-out: Cav 3.1 IC50
T1 construct: expressed in transfected cells; host or cells: HEK 293
Protocol: (§1) The T-type calcium channel blocking activity of the compounds of this invention may be readily determined using the methodology well known in the art described by Xia, et al., Assay and Drug Development Tech., 1 (5), 637-645 (2003).
(§2) In a typical experiment ion channel function from HEK 293 cells expressing the T-type channel alpha-1G, H, or I (CaV 3.1, 3.2, 3.3) is recorded to determine the activity of compounds in blocking the calcium current mediated by the T-type channel alpha-1G, H, or I (CaV 3.1, 3.2, 3.3). In this T-type calcium (Ca^2+) antagonist voltage-clamp assay calcium currents are elicited from the resting state of the human alpha-1G, H, or I (CaV 3.1, 3.2, 3.3) calcium channel as follows. Sequence information for T-type (Low-voltage activated) calcium channels are fully disclosed in e.g., U.S. Pat. No. 5,618,720, U.S. Pat. No. 5,686,241, U.S. Pat. No. 5,710,250,U.S. Pat. No. 5,726,035, U.S. Pat. No. 5,792,846, U.S. Pat. No. 5,846,757, U.S. Pat. No. 5,851,824, U.S. Pat. No. 5,874,236, U.S. Pat. No. 5,876,958, U.S. Pat. No. 6,013,474, U.S. Pat. No. 6,057,114, U.S. Pat. No. 6,096,514, WO 99/28342, and J. Neuroscience, 19 (6):1912-1921 (1999). Cells expressing the t-type channels were grown in H3D5 growth media which is comprised DMEM, 6% bovine calf serum (HYCLONE), 30 micromolar Verapamil, 200 microgram/ml Hygromycin B, 1× Penicillin/Streptomycin. Glass pipettes are pulled to a tip diameter of 1-2 micrometer on a pipette puller. The pipettes are filled with the intracellular solution and a chloridized silver wire is inserted along its length, which is then connected to the headstage of the voltage-clamp amplifier. Trypsinization buffer was 0.05% Trypsin, 0.53 mM EDTA. The extracellular recording solution consists of (mM): 130 mM NaCl, 4 mM KCl, 1 mM MgCl2, 2 mM CaCl2, 10 mM HEPES, 30 Glucose, pH 7.4. The internal solution consists of (mM): 135 mM CsMeSO4, 1 MgCl2, 10 CsCl, 5 EGTA, 10 HEPES, pH 7.4, or 135 mM CsCl, 2 MgCl2, 3 MgATP, 2 Na2ATP, 1 Na2GTP, 5 EGTA, 10 HEPES, pH 7.4. Upon insertion of the pipette tip into the bath, the series resistance is noted (acceptable range is between 1-4 megaohm). The junction potential between the pipette and bath solutions is zeroed on the amplifier. The cell is then patched, the patch broken, and, after compensation for series resistance (>=80%), the voltage protocol is applied while recording the whole cell Ca2+ current response. Voltage protocols: (1) −80 mV holding potential every 20 seconds pulse to −20 mV for 40 msec duration; the effectiveness of the drug in inhibiting the current mediated by the channel is measured directly from measuring the reduction in peak current amplitude initiated by the voltage shift from −80 mV to −20 mV; (2). −100 mV holding potential every 15 seconds pulse to −20 mV for 40 msec duration; the effectiveness of the drug in inhibiting the current mediated by the channel is measured directly from measuring the reduction in peak current amplitude initiated by the shift in potential from −100 mV to […]. The difference in block at the two holding potentials was used to determine the effect of drug at differing levels of inactivation induced by the level of resting state potential of the cells. After obtaining control baseline calcium currents, extracellular solutions containing increasing concentrations of a test compound are washed on. Once steady state inhibition at a given compound concentration is reached, a higher concentration of compound is applied. % inhibition of the peak inward control Ca2+ current during the depolarizing step to −20 mV is plotted as a function of compound concentration.

Human Cav2.2 channels = molecular target: T2, Human Cav2.2 channels (Homo sapiens, UniProt Q00975); test: Block of Cav2.2 (N-type) channels expressed in HEK293 cells; details: for inhibition at 10 µM / inhibition at 30 µM: HEK293; for inhibition at 10 µM: read-out: Cav 2.2 % Inh @ 10 μM; for inhibition at 30 µM: read-out: Cav 2.2 % Inh @ 30 μM; for IC50: read-out: Cav 2.2 IC50
T2 construct: expressed in transfected cells
From the text: Human Cav2.2 channels were stably expressed in HEK293 cells along with alpha2-delta and beta subunits of voltage-gated calcium channels. An inwardly rectifying potassium channel (Kir2.3) was also expressed in these cells to allow more precise control of the cell membrane potential by extracellular potassium concentration. At low bath potassium concentration, the membrane potential is relatively negative, and is depolarized as the bath potassium concentration is raised. In this way, the bath potassium concentration can be used to regulate the voltage-dependent conformations of the channels. Compounds are incubated with cells in the presence of low (4 mM) potassium or elevated (12, 25 or 30 mM) potassium to determine the affinity for compound block of resting (closed) channels at 4 mM potassium or affinity for block of open and inactivated channels at 12, 25 or 30 mM potassium. After the incubation period, Cav2.2 channel opening is triggered by addition of higher concentration of potassium (70 mM final concentration) to further depolarize the cell. The degree of state-dependent block can be estimated from the inhibitory potency of compounds after incubation in different potassium concentrations.
Calcium influx through Cav2.2 channels is determined using a calcium sensitive fluorescent dye in combination with a fluorescent plate reader. Fluorescent changes were measured with either a VIPR (Aurora Instruments) or FLIPR (Molecular Devices) plate reader.
Protocol • 1. Seed cells in Poly-D-Lysine Coated 96 or 384-well plate and keep in a 37° C.-10% CO2 incubator overnight • 2. Remove media, wash cells with 0.2 mL (96-well plate) or 0.05 mL (384-well plate) Dulbecco's Phosphate Buffered Saline (D-PBS) with calcium & magnesium (Invitrogen; 14040) • 3. Add 0.1 mL (96-well plate) or 0.05 mL (384-well plate) of 4 μM fluor-4 (Molecular Probes; F-14202) and 0.02% Pluronic acid (Molecular Probes; P-3000) prepared in D-PBS with calcium & magnesium (Invitrogen; 14040) supplemented with 10 mM Glucose & 10 mM Hepes/NaOH; pH 7.4 • 4. Incubate in the dark at 25° C. for 60-70 min • 5. Remove dye, wash cells with 0.1 mL (96-well plate) or 0.06 mL (384-well plate) of 4, 12, 25, or 30 mM Potassium Pre-polarization Buffer (PPB) • 6. Add 0.1 mL (96-well plate) or 0.03 mL (384-well plate) of 4, 12, 25, 30 mM PPB with or without test compound • 7. Incubate in the dark at 25° C. for 30 min • 8. Read cell plate on VIPR instrument, Excitation=480 nm, Emission=535 nm • 9. With VIPR continuously reading, add 0.1 mL (96-well plate) or 0.03 mL (384-well plate) of Depolarization Buffer (DB), which is 2× the final assay concentration, to the cell plate.
Block of N-type calcium channels is evaluated utilizing the IonWorks HT 384 well automated patch clamp electrophysiology device. This instrument allows synchronous recording from 384 well (48 at a time). A single whole cell recording is made in each well. Whole cell recording is established by perfusion of the internal compartment with amphotericin B.
The voltage protocol is designed to detect use-dependent block. A 2 Hz train of depolarizations (twenty 25 ms steps to +20 mV). The experimental sequence consists of a control train (pre-compound), incubation of cells with compound for 5 minutes, followed by a second train (post-compound). Use dependent block by compounds is estimated by comparing fractional block of the first pulse in the train to block of the 20th pulse.
Parallel patch clamp electrophysiology is performed using IonWorks HT (Molecular Devices Corp) essentially as described by Kiss and colleagues (Kiss et al. 2003; Assay and Drug Development Technologies, 1:127-135). Briefly, a stable HEK 293 cell line (referred to as CBK) expressing the N-type calcium channel subunits (α1B, α2δ, β3a) and an inwardly rectifying potassium channel (Kir2.3) is used to record barium current through the N-type calcium channel. Cells are grown in T75 culture plates to 60-90% confluence before use. […]

[2] = molecular target: T3, Cav3.2 (T-type channel alpha-1H) (Homo sapiens, UniProt O95180); test: T-type calcium channel voltage-clamp assay, Cav3.2; details: read-out: Cav 3.2 IC50
T3 construct: expressed in transfected cells; host or cells: HEK 293
Protocol: as §1, §2

T2 sequence (Q00975 whole entry): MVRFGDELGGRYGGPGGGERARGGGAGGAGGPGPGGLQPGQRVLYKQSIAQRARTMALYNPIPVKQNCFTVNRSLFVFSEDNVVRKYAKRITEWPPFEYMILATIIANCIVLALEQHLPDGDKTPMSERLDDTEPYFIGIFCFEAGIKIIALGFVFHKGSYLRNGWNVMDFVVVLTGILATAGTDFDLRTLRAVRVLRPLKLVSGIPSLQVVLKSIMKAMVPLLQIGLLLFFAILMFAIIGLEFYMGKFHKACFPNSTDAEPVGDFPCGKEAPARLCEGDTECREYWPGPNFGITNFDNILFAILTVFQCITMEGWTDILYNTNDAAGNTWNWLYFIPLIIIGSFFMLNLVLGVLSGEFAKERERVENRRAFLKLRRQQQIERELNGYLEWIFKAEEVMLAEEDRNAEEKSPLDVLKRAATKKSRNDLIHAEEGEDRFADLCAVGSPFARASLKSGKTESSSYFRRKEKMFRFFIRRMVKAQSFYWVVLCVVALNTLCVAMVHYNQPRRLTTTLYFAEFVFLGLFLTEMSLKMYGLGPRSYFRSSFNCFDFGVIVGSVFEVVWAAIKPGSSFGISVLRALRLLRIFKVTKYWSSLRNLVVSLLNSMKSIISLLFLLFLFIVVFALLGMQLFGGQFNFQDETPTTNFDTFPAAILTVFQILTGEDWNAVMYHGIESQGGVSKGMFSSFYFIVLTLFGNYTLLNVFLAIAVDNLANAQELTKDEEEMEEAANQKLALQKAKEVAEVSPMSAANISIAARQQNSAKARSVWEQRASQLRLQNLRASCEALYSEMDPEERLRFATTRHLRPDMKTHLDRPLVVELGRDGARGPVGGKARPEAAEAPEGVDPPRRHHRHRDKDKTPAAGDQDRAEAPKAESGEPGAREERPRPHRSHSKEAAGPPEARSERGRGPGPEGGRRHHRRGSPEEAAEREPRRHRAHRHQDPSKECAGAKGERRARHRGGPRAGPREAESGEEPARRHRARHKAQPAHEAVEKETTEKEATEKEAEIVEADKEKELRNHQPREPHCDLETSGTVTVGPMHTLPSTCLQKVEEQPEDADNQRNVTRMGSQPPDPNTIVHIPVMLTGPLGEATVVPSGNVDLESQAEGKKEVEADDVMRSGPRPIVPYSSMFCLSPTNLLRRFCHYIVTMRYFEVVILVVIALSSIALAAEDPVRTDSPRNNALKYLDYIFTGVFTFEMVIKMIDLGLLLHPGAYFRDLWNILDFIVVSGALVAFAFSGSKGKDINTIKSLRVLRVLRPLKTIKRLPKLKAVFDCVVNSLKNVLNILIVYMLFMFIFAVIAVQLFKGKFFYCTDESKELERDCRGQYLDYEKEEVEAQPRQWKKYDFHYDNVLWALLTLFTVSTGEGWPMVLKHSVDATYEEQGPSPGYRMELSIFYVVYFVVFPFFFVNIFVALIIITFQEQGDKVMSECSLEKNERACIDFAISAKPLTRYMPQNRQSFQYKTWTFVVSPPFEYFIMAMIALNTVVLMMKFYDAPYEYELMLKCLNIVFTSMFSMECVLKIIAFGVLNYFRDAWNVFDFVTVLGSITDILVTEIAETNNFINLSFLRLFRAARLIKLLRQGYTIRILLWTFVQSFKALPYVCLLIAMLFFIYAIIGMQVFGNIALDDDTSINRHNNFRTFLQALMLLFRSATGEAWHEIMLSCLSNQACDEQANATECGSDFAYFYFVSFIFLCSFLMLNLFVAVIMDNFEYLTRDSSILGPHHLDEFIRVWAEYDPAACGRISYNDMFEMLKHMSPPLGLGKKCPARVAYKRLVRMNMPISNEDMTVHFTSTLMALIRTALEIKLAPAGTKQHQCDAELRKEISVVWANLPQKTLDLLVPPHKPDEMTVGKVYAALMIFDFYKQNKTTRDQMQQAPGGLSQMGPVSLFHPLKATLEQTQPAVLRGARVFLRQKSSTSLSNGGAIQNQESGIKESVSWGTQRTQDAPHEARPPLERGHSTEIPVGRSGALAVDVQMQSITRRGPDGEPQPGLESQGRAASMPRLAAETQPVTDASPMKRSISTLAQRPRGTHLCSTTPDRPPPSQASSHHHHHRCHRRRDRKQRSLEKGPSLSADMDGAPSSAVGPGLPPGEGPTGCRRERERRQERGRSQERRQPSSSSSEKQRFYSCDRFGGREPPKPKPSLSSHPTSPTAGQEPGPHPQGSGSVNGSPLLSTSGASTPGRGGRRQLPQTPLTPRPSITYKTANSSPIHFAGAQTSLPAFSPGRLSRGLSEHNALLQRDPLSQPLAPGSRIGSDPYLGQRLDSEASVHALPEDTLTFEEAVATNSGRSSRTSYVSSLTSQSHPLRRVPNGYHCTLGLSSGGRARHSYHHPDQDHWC
T2 sequence (P54289 25-956 partner limits assumed): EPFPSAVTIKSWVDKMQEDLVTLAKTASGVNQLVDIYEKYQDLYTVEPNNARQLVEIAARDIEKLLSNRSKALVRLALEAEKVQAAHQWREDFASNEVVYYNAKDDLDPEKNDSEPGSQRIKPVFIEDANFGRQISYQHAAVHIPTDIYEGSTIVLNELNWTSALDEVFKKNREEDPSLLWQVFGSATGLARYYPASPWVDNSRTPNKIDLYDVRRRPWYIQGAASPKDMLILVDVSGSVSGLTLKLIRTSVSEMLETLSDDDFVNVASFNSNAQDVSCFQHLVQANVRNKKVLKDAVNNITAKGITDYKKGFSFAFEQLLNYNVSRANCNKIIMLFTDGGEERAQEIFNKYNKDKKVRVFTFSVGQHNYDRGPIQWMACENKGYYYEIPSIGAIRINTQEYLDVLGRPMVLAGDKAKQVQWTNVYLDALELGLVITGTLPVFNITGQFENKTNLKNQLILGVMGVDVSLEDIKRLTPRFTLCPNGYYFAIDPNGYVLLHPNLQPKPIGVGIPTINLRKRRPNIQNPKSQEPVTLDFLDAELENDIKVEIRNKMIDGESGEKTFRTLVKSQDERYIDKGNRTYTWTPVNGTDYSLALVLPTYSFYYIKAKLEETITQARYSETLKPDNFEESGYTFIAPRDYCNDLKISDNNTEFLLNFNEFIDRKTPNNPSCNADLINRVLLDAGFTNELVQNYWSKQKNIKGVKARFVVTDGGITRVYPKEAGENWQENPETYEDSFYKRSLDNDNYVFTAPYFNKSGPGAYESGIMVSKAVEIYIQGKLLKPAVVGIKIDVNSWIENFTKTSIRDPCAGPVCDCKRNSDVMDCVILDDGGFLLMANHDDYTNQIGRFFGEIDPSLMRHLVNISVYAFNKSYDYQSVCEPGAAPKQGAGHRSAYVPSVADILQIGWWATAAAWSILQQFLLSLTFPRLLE
T2 sequence (P54289 957-1103 partner limits assumed): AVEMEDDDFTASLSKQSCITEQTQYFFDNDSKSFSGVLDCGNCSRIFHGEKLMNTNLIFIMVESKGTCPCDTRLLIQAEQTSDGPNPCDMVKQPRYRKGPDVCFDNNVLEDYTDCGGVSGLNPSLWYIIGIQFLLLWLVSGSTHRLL
T2 sequence (P54284 whole entry partner): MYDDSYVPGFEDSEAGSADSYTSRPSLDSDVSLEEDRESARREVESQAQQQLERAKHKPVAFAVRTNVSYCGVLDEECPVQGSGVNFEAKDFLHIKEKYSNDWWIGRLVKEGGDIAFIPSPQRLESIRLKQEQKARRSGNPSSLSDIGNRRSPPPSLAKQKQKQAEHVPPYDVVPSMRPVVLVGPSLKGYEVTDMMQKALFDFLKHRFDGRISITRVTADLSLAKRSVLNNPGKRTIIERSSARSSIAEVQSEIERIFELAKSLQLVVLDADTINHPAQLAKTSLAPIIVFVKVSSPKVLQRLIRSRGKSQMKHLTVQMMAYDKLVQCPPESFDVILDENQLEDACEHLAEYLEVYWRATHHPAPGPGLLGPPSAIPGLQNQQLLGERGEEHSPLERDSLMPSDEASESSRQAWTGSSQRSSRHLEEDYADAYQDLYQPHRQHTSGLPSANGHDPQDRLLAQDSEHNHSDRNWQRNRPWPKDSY

SMILES	IC50 [1] [nM]	inhibition at 10 µM (Human Cav2.2 channels) [%]	inhibition at 30 µM (Human Cav2.2 channels) [%]	IC50 (Human Cav2.2 channels) [nM]	IC50 [2] [nM]
CCSc1ncccc1C(=O)N1CCN(c2cc(C(C)(C)C)cc(C(C)(C)C)c2)CC1 [Compound 45, (4-(3,5-di-tert-butylphenyl)piperazin-1-yl)(2-(ethylthio)pyridin-3-yl)methanone]	960	97	101	1080	1800
Cc1ccc(OCC(=O)N2CCN(c3cc(C(C)(C)C)cc(C(C)(C)C)c3)CC2)c(C)c1 [Compound 14, 1-(4-(3,5-di-tert-butylphenyl)piperazin-1-yl)-2-(2,4-dimethylphenoxy)ethanone]	1280	86	93	1370	1110
CCn1nc(C)cc1C(=O)N1CCN(c2cc(C(C)(C)C)cc(C(C)(C)C)c2)CC1 [Compound 33, (4-(3,5-di-tert-butylphenyl)piperazin-1-yl)(1-ethyl-3-methyl-1H-pyrazol-5-yl)methanone]	2340	97	95	830	2520
CC(C)(C)C(=O)Nc1cc(C(=O)N2CCN(c3cc(C(C)(C)C)cc(C(C)(C)C)c3)CC2)ccn1 [Compound 22, N-(4-(4-(3,5-di-tert-butylphenyl)piperazine-1-carbonyl)pyridin-2-yl)pivalamide]	50	99	103	990	70
CCCSc1ncccc1C(=O)N1CCN(c2cc(C(C)(C)C)cc(C(C)(C)C)c2)CC1 [Compound 31, (4-(3,5-di-tert-butylphenyl)piperazin-1-yl)(2-(propylthio)pyridin-3-yl)methanone]	1250	99	104	850	1590
CC(C)(C)c1cc(N2CCN(C(=O)c3cc(-c4ccccc4)nc(-c4ccccc4)c3)CC2)cc(C(C)(C)C)c1 [Compound 50, (4-(3,5-di-tert-butylphenyl)piperazin-1-yl)(2,6-diphenylpyridin-4-yl)methanone]	–	20	26	–	–
Cc1ccc(S(C)(=O)=O)cc1C(=O)N1CCN(c2cc(C(C)(C)C)cc(C(C)(C)C)c2)CC1 [Compound 26, (4-(3,5-di-tert-butylphenyl)piperazin-1-yl)(2-methyl-5-(methylsulfonyl)phenyl)methanone]	–	87	98	–	–

Results, then the compound that gave them:

IC50 [1] [nM]	inhibition at 10 µM (Human Cav2.2 channels) [%]	inhibition at 30 µM (Human Cav2.2 channels) [%]	IC50 (Human Cav2.2 channels) [nM]	IC50 [2] [nM]	SMILES
370	103	103	1480	610	CC(C)(C)c1cc(N2CCN(C(=O)c3ccccc3)CC2)cc(C(C)(C)C)c1 [Compound 48, (4-(3,5-di-tert-butylphenyl)piperazin-1-yl)(phenyl)methanone]
600	97	97	620	680	CC(C)(C)c1cc(N2CCN(C(=O)COc3ccc(F)cc3)CC2)cc(C(C)(C)C)c1 [Compound 13, 1-(4-(3,5-di-tert-butylphenyl)piperazin-1-yl)-2-(4-fluorophenoxy)ethanone]
840	88	101	2000	1010	Cc1ccsc1C(=O)N1CCN(c2cc(C(C)(C)C)cc(C(C)(C)C)c2)CC1 [Compound 29, (4-(3,5-di-tert-butylphenyl)piperazin-1-yl)(3-methylthiophen-2-yl)methanone]
–	32	73	–	–	CC(C)(C)c1cc(N2CCN(C(=O)c3ccc(C(O)(C(F)(F)F)C(F)(F)F)cc3)CC2)cc(C(C)(C)C)c1 [Compound 36, (4-(3,5-di-tert-butylphenyl)piperazin-1-yl)(4-(1,1,1,3,3,3-hexafluoro-2-hydroxypropan-2-yl)phenyl)methanone]
–	80	97	–	–	CC(C)c1ccc(C(=O)N2CCN(c3cc(C(C)(C)C)cc(C(C)(C)C)c3)CC2)cc1 [Compound 17, (4-(3,5-di-tert-butylphenyl)piperazin-1-yl)(4-isopropylphenyl)methanone]
